The values that follow come from patent publication EP4813381A1, “PHARMACEUTICAL USE OF GUAIANE SESQUITERPENE DERIVATIVE” (Nanjing University Of Chinese Medicine, priority 2023, dated 2025).

One assay has as its system Rat mast cells (RBL-2H3). Nature of the assay: Mast cell degranulation test (anti-DNP IgE / DNP-HSA). The class given is cell-based. To be noted: RBL-2H3, IgE+HSA, 4 h. As to the method:
Rat mast cells (RBL-2H3) were cultured routinely in DMEM medium containing 10% FBS within a 5% CO2 incubator. Upon reaching 70-80% confluence, cells were uniformly seeded at a density of 1 × 10^5 cells/mL into 6-well plates (2 mL per well), divided into the following groups: Normal, IgE+HSA, Compound 1 (0.01, 0.1, 1, 10 µM). Mast cells were sensitized with 500 µg/L anti-DNP IgE for 12 h. washed with PBS, and cultured for an additional 12 h with 100 µg/L DNP-HSA. Compound 1 at the specified concentrations was then added. […]

Assay [1] relates to chronic kidney injury induced by unilateral ureteral ligation. Nature of the assay: Unilateral ureteral ligation (UUO) chronic kidney injury model in mice: Scr and BUN. The class given is in vivo, C57BL/6 mice. The following applies: serum, 14 days.
Assay [2] concerns acute kidney injury induced by folic acid. The experiment in a line: Folic acid acute kidney injury model in mice: serum creatinine (Scr) and blood urea nitrogen (BUN). The class given is in vivo, C57BL/6 mice. To be noted: acute model (FA), 3 days.
The subject of assay [3] is MC903-induced atopic dermatitis (AD). Nature of the assay: MC903-induced AD model on the dorsum of mice, Compound 1 ointment: skin thickness and dermatitis score. In kind it is in vivo. The following applies: for inhibition rate (dorsal skin thickness): final day; for Dermatitis Score: back, score max 12; for Skin thickness: dorsal region, AD mice. Also on record: Skin thickness: unit not given here. As for the experimental part: Weigh white petrolatum, light liquid paraffin, glyceryl monostearate, ethylparaben, and cetyl alcohol. Heat to 65 °C while stirring until dissolved. Slowly add the dissolved active pharmaceutical ingredient (API) while continuing to stir until uniformly mixed. Set aside. • (2) Aqueous Phase Preparation: […] Slowly add the aqueous phase to the oil phase while maintaining 65 °C, homogenize, and continue stirring for 30 min; • (4) Cooling: Stop heating, continue stirring, gradually reduce to room temperature, cool to form an ointment, and fill containers. […] Dissolve these substances in a small amount of propylene glycol, then place the resulting solution into the aforementioned pre-cooled blank ointment base. […] Establishment of the AD Model on the Dorsum of Mice and Drug Administration: […] Except for the Normal group, all other groups underwent AD modeling: 48 hours prior to the experiment, hair on the dorsal neck region was meticulously removed using clippers and depilatory cream. […] Model and control group mice received daily application of blank ointment. Twenty-four hours after completing the 14-day modeling period, photographs of skin lesions were taken, and skin lesion and blood samples were collected. Skin Lesion Severity Score: […] Statistical analysis was performed on the data.

Assay [4] relates to renal injury markers (Ngal, Havcr1), inflammatory cytokines (TNF, IL-6, IL-1), fibrosis-related factors (α-Sma, Col1a1, Tgfb1). Nature of the assay: Unilateral ureteral ligation (UUO) chronic kidney injury model in mice: Q-PCR of kidney tissue. In kind it is in vivo, C57BL/6 mice. Also noted: Tnf / Il1 / Il6: unit not given here. To be noted: kidney mRNA.
For assay [5], the system named is CCl4-induced liver injury. The experiment in a line: CCl4 acute liver injury model in mice: serum ALT and AST. In kind it is in vivo, C57BL/6 mice. To be noted: 3 days (method: U/L). The source says:
The drug of the present invention, prepared according to Example 2; Silybin, Shanghai Yuanye Biotechnology Co., Ltd.; Olive oil, Beijing […] Olive Oil Development Center; Analytical grade carbon tetrachloride (CCl4), Shantou Xilong Chemical Factory; Sodium carboxymethyl cellulose (CMC-Na), Guangdong Shantou Xilong Chemical Factory; RNA Isolater Total RNA Extraction Reagent, […] RT Supermix for qPCR, Nanjing Vazyme Biotech Co., Ltd.; AceQ qPCR SYBR Green Master Mix, Shanghai Yeasen Biotechnology Co., Ltd.; Aspartate Transaminase (AST/GOT) Colorimetric Test Kit, Alanine Transaminase (ALT/GPT) Colorimetric Test Kit, Wuhan Elabscience Biotechnology Co., Ltd. • Experimental animals: […] SCXK(Su)2019-002. […] They were acclimated for 7 days before use in experiments. • Experimental Methods: Establishment of Acute Liver Injury Model in Mice and Group-Specific Drug Administration • Mice were randomly assigned to groups. […] One hour after the final drug administration, blood was collected from the retinal venous plexus. […] Serum was aspirated, aliquoted, and stored at -70 °C for future use. After blood collection, euthanize mice by cervical dislocation. Perform laparotomy to remove the liver. Rinse twice with pre-chilled PBS. Excise the left hepatic lobe tissue. […] Store remaining tissue at -70 °C for future use. • Serum AST and ALT Assay: Use 10 μL of each sample for testing. Determine mouse serum AST and ALT levels according to the operating manual. Measure absorbance at 510 nm using an enzyme-linked immunosorbent assay (ELISA) reader. Calculate sample concentration (U/L) based on the standard curve. Data Statistics: All data are expressed as means ± standard error of the mean (S.E.M.). Differences were analyzed for significance using analysis of variance (ANOVA). For groups showing significant differences in ANOVA, one-way ANOVA followed by Dunnett's test was performed to compare intergroup differences.

Regarding `C=C1C(=O)O[C@@H]2[C@@H]3[C@]4(CC[C@@]3(C)O)C[C@]4(C)CC[C@@H]12` [compound 1], the β-Glucosaminidase came to 13.24 ± 0.08 ng/mL in the assay on Rat mast cells (RBL-2H3) (0.01 µM), 12.08 ± 0.12 ng/mL with Rat mast cells (RBL-2H3) (0.1 µM), 10.65 ± 0.05 ng/mL with Rat mast cells (RBL-2H3) (1 µM) and 7.13 ± 0.07 ng/mL in the assay on Rat mast cells (RBL-2H3) (10 µM). Moreover, the BUN worked out at 18.41±1.82 in assay [1] (oral gavage 0.1 mg/kg), 11.01±1.54 in assay [1] (oral gavage 1 mg/kg), 31.46±2.54 in assay [2] (oral gavage 0.1 mg/kg) and 21.33±2.21 in assay [2] (oral gavage 1 mg/kg). Further, the Scr in assay [1] (oral gavage 0.1 mg/kg) is listed as 176.35±17.11; in assay [1] (oral gavage 1 mg/kg), 104.65±16.26; in assay [2] (oral gavage 0.1 mg/kg), 108.48±11.76; in assay [2] (oral gavage 1 mg/kg) it was 71.95±5.74. For the same compound, the “inhibition rate (dorsal skin thickness)” value in assay [3] (0.01% Compound 1 ointment) stood at 66%; in assay [3] (0.1% Compound 1 ointment) it was 72%; in assay [3] (1% Compound 1 ointment) it was 83%. Moreover, the “Dermatitis Score” value in assay [3] (0.01% ointment for 7 days) stood at 3.67±0.33; in assay [3] (0.1% ointment for 7 days), 2.50±0.22; in assay [3] (1% ointment for 7 days), 2.17±0.17. Further, the Skin thickness in assay [3] (0.01% ointment) worked out at 36.06±0.91; in assay [3] (0.1% ointment) it was 33.11±0.31; in assay [3] (1% ointment) it was 29.56±0.25. In addition, the Col1a1 turned out to be 16.09±3.57 in assay [4] (oral 0.1 mg/kg) and 9.45±1.03 in assay [4] (oral 1 mg/kg). The Havcr1 in assay [4] (oral 0.1 mg/kg) was 12.56±1.95; in assay [4] (oral 1 mg/kg), 8.54±1.38. In addition, the Il1 in assay [4] (oral 0.1 mg/kg) was 6.05±0.49; in assay [4] (oral 1 mg/kg), 3.99±0.31. Besides, the Il6 in assay [4] (oral 0.1 mg/kg) was determined as 16.52±1.69; in assay [4] (oral 1 mg/kg), 6.50±1.51. For the same compound, the Ngal in assay [4] (oral 0.1 mg/kg) is 37.82±4.85; in assay [4] (oral 1 mg/kg), 21.66±6.00. Moreover, the Tgfb1 in assay [4] (oral 0.1 mg/kg) turned out to be 2.04±0.24; in assay [4] (oral 1 mg/kg), 1.55±0.19. For the same compound, the results for the Tnf in assay [4] (oral 0.1 mg/kg) and in assay [4] (oral 1 mg/kg) were 6.41±1.46 and 6.59±1.19, respectively. For the same compound, the figures for the α-Sma in assay [4] (oral 0.1 mg/kg) and in assay [4] (oral 1 mg/kg) were 2.32±0.54 and 1.54±0.12, respectively. For the same compound, the ALT in assay [5] (oral 0.1 mg/kg) amounted to 173.58 ± 22.75; in assay [5] (oral 1 mg/kg), 104.22 ± 5.21. Also, the AST in assay [5] (oral 0.1 mg/kg) is on record as 424.52 ± 175.34; in assay [5] (oral 1 mg/kg) it was 237.16±36.70.

In assay [1] (oral gavage 1 mg/kg), `CN(C)C[C@@H]1C(=O)O[C@H]2[C@H]1CC[C@@]1(C)C[C@]13CC[C@@](C)(O)[C@H]23` [compound 20] gave a BUN of 9.39±0.92 and a Scr of 64.50±7.13. For the same compound, in assay [2] (oral gavage 1 mg/kg), the BUN is reported as 16.74±1.42 and the Scr came to 64.94±9.68. In addition, the α-Sma in assay [4] (oral 1 mg/kg, 1 mg/kg) is 1.26±0.18.
